Key:
[1] = target: T1, Fms (Homo sapiens, UniProt P07333); experiment: Fms biochemical assay (AlphaScreen or 33P-ATP); conditions: under the test conditions employed; read-out: IC50 toward kinase Fms
T1 construct: purchased Upstate Biotech 14-551
Source text: Each sample was at 5% DMSO.

[2] = target: T2, TrkA (Homo sapiens, UniProt P04629); experiment: TrkA biochemical assay (AlphaScreen); conditions: under the test conditions employed; read-out: IC50 toward kinase TrkA
T2 construct: purchased Upstate Biotech 14-571
T2 sequence (P04629 33-796): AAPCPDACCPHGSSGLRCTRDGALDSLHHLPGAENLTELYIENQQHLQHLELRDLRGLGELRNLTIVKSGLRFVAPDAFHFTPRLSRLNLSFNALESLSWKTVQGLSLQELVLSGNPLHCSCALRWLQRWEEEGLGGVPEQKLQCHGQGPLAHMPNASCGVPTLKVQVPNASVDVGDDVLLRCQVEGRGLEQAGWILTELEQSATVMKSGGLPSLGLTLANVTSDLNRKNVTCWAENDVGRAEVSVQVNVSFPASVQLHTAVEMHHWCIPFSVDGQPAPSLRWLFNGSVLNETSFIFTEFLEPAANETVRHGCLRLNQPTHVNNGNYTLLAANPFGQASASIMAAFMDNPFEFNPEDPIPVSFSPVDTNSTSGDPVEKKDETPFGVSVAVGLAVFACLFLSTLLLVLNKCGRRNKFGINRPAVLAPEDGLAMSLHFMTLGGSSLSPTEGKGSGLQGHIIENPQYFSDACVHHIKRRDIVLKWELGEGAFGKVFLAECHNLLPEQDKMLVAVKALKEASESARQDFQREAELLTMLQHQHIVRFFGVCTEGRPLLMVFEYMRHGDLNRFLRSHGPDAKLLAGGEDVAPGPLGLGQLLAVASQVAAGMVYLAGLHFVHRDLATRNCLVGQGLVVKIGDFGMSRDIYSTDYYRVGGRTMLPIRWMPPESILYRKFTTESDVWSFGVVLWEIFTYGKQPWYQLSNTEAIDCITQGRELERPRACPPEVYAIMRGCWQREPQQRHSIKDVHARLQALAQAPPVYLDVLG
Method: Compounds tested were dissolved in DMSO (1 μL) and added to a white 384-well plate (Costar #3705). […] Each sample was at 5% DMSO. The plate was then incubated for 40 minutes at room temperature.

[3] = target: HGK (Homo sapiens, UniProt O95819); experiment: HGK (MAP4K4) biochemical assay (AlphaScreen); conditions: under the test conditions employed; read-out: IC50 toward kinase HGK
Chain of HGK (O95819 whole entry): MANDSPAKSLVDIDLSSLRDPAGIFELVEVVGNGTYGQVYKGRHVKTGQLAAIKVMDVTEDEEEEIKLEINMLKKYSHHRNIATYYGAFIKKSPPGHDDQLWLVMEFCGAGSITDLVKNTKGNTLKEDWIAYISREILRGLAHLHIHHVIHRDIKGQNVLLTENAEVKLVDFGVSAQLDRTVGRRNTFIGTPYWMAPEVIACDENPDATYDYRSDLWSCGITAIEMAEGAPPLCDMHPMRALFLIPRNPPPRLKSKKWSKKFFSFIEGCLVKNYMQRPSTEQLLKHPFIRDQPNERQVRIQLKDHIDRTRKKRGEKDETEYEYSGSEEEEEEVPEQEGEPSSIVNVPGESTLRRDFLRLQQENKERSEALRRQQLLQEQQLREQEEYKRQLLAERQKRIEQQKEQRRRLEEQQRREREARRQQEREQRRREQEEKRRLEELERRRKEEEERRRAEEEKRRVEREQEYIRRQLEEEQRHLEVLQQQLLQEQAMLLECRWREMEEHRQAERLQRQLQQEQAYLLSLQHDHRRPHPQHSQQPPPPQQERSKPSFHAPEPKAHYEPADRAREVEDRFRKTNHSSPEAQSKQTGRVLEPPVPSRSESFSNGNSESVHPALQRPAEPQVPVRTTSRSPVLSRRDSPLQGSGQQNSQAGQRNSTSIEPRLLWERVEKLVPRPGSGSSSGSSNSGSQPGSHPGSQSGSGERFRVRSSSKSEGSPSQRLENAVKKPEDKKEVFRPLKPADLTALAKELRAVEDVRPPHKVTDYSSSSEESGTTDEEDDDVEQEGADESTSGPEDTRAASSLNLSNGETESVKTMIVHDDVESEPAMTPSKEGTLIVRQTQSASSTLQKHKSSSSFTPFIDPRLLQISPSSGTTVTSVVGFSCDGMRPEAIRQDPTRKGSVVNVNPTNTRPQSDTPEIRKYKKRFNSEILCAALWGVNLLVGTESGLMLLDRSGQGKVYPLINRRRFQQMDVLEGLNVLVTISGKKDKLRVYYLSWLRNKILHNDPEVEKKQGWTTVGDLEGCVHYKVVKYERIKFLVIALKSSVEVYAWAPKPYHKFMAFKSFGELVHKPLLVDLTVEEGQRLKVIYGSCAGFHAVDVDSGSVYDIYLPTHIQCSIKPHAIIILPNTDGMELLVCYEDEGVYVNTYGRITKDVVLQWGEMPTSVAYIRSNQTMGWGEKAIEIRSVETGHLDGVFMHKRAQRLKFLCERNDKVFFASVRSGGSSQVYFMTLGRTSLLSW
Method: Substrate was 10 nM biotin-ERM (T567/T564/T558, Cell Signaling, Inc., cat#1344). MAP4K4 kinase was at 0.5 ng per sample. After incubation of the kinase reaction for 40 min at room temperature, 5 μl of donor beads and protein A acceptor beads (Perkin Elmer Life Science, cat#67606017) at final concentration 1 μg/ml in stop buffer (20 mM Tris, pH 7.4, 200 mM Nacl, 100 mM EDTA, 0.03% BSA) was added, along with Phospho-ERM Antibody (T567/T564/T558, Cell Signaling, Inc., cat#3141) at 1:1000 dilution. […] Phosphorylated substrate results in binding of the antibody which binds to protein A acceptor bead and association of the donor and acceptor beads is such that the signal correlates with kinase activity.

[4] = target: T3, Kit (Homo sapiens, UniProt P10721); experiment: c-kit biochemical assay (AlphaScreen or 33P-ATP); conditions: under the test conditions employed; read-out: IC50 toward kinase Kit
T3 construct: P1332.N6 BI PTP KIT M552-K948-X COD; made in house; host or cells: E. coli BL21(DE3)RIL, co-expressed with PTP1B
T3 sequence (P10721 552-948): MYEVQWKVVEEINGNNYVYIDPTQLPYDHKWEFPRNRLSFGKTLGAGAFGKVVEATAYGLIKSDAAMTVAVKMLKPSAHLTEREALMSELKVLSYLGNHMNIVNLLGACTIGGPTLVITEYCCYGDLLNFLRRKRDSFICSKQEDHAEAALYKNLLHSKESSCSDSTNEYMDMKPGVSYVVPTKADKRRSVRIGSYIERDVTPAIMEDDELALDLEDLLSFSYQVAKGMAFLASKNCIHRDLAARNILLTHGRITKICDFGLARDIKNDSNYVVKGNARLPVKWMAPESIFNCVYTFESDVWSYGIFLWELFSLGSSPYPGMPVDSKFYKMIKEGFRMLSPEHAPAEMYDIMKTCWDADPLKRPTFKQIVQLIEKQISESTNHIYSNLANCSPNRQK
Method: C-kit kinase was at 1 ng per sample.
The c-kit enzyme used in the above assay was either obtained from Cell Signaling Technology (Cat. #7754) or was prepared as follows: A plasmid encoding kit (DNA and encoded protein sequences shown below) was engineered using common polymerase chain reaction (PCR) methods. Complementary DNA cloned from various human tissues were purchased from Invitrogen, and these were used as substrates in the PCR reactions. Specific custom synthetic oligonucleotide primers were designed to initiate the PCR product, and also to provide the appropriate restriction enzyme cleavage sites for ligation with the plasmids. The entire sequence encoding the enzyme was made through a gene synthesis procedure, using custom synthetic oligonucleotides covering the entire coding sequence (Invitrogen, see below).

T1 sequence (P07333 20-972): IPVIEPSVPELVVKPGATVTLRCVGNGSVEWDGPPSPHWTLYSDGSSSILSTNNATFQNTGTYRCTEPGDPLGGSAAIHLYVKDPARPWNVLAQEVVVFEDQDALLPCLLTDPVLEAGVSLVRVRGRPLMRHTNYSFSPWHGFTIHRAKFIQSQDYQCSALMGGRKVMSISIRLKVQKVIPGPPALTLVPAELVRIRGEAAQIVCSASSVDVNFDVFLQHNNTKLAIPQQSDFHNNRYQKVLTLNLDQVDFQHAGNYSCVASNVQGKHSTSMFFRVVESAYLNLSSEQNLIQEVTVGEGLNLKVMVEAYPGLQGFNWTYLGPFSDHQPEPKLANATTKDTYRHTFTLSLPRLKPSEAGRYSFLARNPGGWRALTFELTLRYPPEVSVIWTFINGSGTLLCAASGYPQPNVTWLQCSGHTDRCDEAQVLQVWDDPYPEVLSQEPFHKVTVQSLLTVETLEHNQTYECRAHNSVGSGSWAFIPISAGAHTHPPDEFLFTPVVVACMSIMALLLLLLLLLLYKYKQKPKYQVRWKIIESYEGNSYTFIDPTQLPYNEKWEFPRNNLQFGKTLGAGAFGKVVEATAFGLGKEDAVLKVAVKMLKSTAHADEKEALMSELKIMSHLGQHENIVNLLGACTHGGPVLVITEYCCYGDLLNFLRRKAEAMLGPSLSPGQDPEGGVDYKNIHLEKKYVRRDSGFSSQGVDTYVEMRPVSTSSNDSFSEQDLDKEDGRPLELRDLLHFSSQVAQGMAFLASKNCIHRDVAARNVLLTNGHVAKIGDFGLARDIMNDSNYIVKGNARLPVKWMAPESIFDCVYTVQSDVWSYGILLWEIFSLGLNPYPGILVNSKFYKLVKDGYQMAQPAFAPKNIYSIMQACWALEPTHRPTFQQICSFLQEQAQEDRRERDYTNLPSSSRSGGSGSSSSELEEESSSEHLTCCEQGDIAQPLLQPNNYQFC

IC50 [1] | SMILES | further results
≤ 10 µM | Fc1ccc(OCc2ccccc2)c(F)c1Cc1c[nH]c2ncccc12 [P-1803, 3-(3-Benzyloxy-2,6-difluoro-benzyl)-1H-pyrrolo[2,3-b]pyridine] | –
≤ 10 µM | COc1cc(Cc2c[nH]c3ncccc23)ccc1OCc1ccc(CN2CCN(C)CC2)cc1 [P-1821, 3-{3-Methoxy-4-[4-(4-methyl-piperazin-1-ylmethyl)-benzyloxy]-benzyl}-1H-pyrrolo[2,3-b]pyridine] | –
– | COc1cc(Cc2c[nH]c3ncccc23)c(F)cc1OCc1ccc(Cl)cc1 [P-1844, 3-[4-(4-Chloro-benzyloxy)-2-fluoro-5-methoxy-benzyl]-1H-pyrrolo[2,3-b]pyridine] | IC50 [2]: ≤ 10 µM
– | COc1cnc2[nH]cc(Cc3cc(OC)c(OCc4ccc(Cl)cc4F)cc3F)c2c1 [P-1885, 3-[4-(4-Chloro-2-fluoro-benzyloxy)-2-fluoro-5-methoxy-benzyl]-5-methoxy-1H-pyrrolo[2,3-b]pyridine] | IC50 [2]: ≤ 10 µM
– | COc1cc(Cc2c[nH]c3ncc(Cl)cc23)c(F)cc1OCc1nc2ccccc2[nH]1 [P-1976, 2-[4-(5-Chloro-1H-pyrrolo[2,3-b]pyridin-3-ylmethyl)-5-fluoro-2-methoxy-phenoxymethyl]-1H-benzoimidazole] | IC50 [2]: ≤ 10 µM
– | COc1cc(Cc2c[nH]c3ncccc23)c(F)cc1OCc1nc2ccccc2[nH]1 [P-1978, 2-[5-Fluoro-2-methoxy-4-(1H-pyrrolo[2,3-b]pyridin-3-ylmethyl)-phenoxymethyl]-1H-benzoimidazole] | IC50 [2]: ≤ 10 µM
– | COc1cc(Cc2c[nH]c3ncccc23)c(F)cc1OCc1cccnc1 [P-2038, 3-[2-Fluoro-5-methoxy-4-(pyridin-3-ylmethoxy)-benzyl]-1H-pyrrolo[2,3-b]pyridine] | IC50 [2]: ≤ 10 µM
≤ 10 µM | Fc1cc(OCc2nc3ccccc3[nH]2)cc(F)c1Cc1c[nH]c2ncccc12 [P-2102, 2-[3,5-Difluoro-4-(1H-pyrrolo[2,3-b]pyridin-3-ylmethyl)-phenoxymethyl]-1H-benzoimidazole] | IC50 [3]: ≤ 10 µM
≤ 10 µM | COc1ccc2[nH]c(COc3cc(F)c(Cc4c[nH]c5ncccc45)cc3OC)nc2c1 [P-2113, 2-[5-Fluoro-2-methoxy-4-(1H-pyrrolo[2,3-b]pyridin-3-ylmethyl)-phenoxymethyl]-6-methoxy-1H-benzoimidazole] | IC50 [3]: ≤ 10 µM
≤ 10 µM | O=C(c1cccc(OCc2ccc(Cl)cc2)c1OCCF)c1c[nH]c2ncccc12 [P-2118, [3-(4-Chloro-benzyloxy)-2-(2-fluoro-ethoxy)-phenyl]-(1H-pyrrolo[2,3-b]pyridin-3-yl)-methanone] | –
≤ 10 µM | O=C(c1cccc(OCc2ccc(Cl)cc2F)c1OCC(F)F)c1c[nH]c2ncccc12 [P-2119, [3-(4-Chloro-2-fluoro-benzyloxy)-2-(2,2-difluoro-ethoxy)-phenyl]-(1H-pyrrolo[2,3-b]pyridin-3-yl)-methanone] | –
≤ 10 µM | O=C(c1cccc(OCc2ccc(Cl)cc2F)c1OCC1CC1)c1c[nH]c2ncccc12 [P-2120] | IC50 [4]: ≤ 10 µM
≤ 10 µM | CCOc1c(OCc2cccc(C)n2)cccc1C(=O)c1c[nH]c2ncccc12 [P-2122, [2-Ethoxy-3-(6-methyl-pyridin-2-ylmethoxy)-phenyl]-(1H-pyrrolo[2,3-b]pyridin-3-yl)-methanone] | –
≤ 10 µM | CCOc1c(OCc2ccc(Cl)cc2F)cccc1C(=O)c1c[nH]c2ncccc12 [P-2123, [3-(4-Chloro-2-fluoro-benzyloxy)-2-ethoxy-phenyl]-(1H-pyrrolo[2,3-b]pyridin-3-yl)-methanone] | –
≤ 10 µM | CCOc1c(OCc2sc(C)nc2C)cccc1C(=O)c1c[nH]c2ncccc12 [P-2124, [3-(2,4-Dimethyl-thiazol-5-ylmethoxy)-2-ethoxy-phenyl]-(1H-pyrrolo[2,3-b]pyridin-3-yl)-methanone] | –
≤ 10 µM | CCOc1c(OCc2cc(C)nn2C)cccc1C(=O)c1c[nH]c2ncccc12 [P-2125, [3-(2,5-Dimethyl-2H-pyrazol-3-ylmethoxy)-2-ethoxy-phenyl]-(1H-pyrrolo[2,3-b]pyridin-3-yl)-methanone] | –
≤ 10 µM | CCOc1c(OCCCN2CCOCC2)cccc1C(=O)c1c[nH]c2ncccc12 [P-2126, [2-Ethoxy-3-(3-morpholin-4-yl-propoxy)-phenyl]-(1H-pyrrolo[2,3-b]pyridin-3-yl)-methanone] | –

IC50 [1] | SMILES | further results
≤ 10 µM | CCOc1c(OCc2ccccc2F)cccc1C(=O)c1c[nH]c2ncccc12 [P-2127, [2-Ethoxy-3-(2-fluoro-benzyloxy)-phenyl]-(1H-pyrrolo[2,3-b]pyridin-3-yl)-methanone] | –
≤ 10 µM | CCOc1c(OCc2ccc(N3CCOCC3)nc2)cccc1C(=O)c1c[nH]c2ncccc12 [P-2128, [2-Ethoxy-3-(6-morpholin-4-yl-pyridin-3-ylmethoxy)-phenyl]-(1H-pyrrolo[2,3-b]pyridin-3-yl)-methanone] | –
≤ 10 µM | CCOc1c(OCc2ccc(C(F)(F)F)nc2)cccc1C(=O)c1c[nH]c2ncccc12 [P-2129, [2-Ethoxy-3-(6-trifluoromethyl-pyridin-3-ylmethoxy)-phenyl]-(1H-pyrrolo[2,3-b]pyridin-3-yl)-methanone] | –
≤ 10 µM | CCOc1c(OCc2ccc(Cl)cc2Cl)cccc1C(=O)c1c[nH]c2ncccc12 [P-2130, [3-(2,4-Dichloro-benzyloxy)-2-ethoxy-phenyl]-(1-pyrrolo[2,3-b]pyridin-3-yl)-methanone] | IC50 [4]: ≤ 10 µM
≤ 10 µM | CCOc1c(OCc2ccc(-n3ccnc3)cc2)cccc1C(=O)c1c[nH]c2ncccc12 [P-2131, [2-Ethoxy-3-(4-imidazol-1-yl-benzyloxy)-phenyl]-(1H-pyrrolo[2,3-b]pyridin-3-yl)-methanone] | –
≤ 10 µM | CCOc1c(OCc2ccc(F)cc2F)cccc1C(=O)c1c[nH]c2ncccc12 [P-2132, [3-(2,4-Difluoro-benzyloxy)-2-ethoxy-phenyl]-(1H-pyrrolo[2,3-b]pyridin-3-yl)-methanone] | –
≤ 10 µM | CCOc1c(OC(C)c2ccccc2F)cccc1C(=O)c1c[nH]c2ncccc12 (stereo not shown) [P-2133, {2-Ethoxy-3-[1-(2-fluoro-phenyl)-ethoxy]-phenyl}-(1H-pyrrolo[2,3-b]pyridin-3-yl)-methanone] | –
≤ 10 µM | CCOc1c(OCc2cc(C)n(C)n2)cccc1C(=O)c1c[nH]c2ncccc12 [P-2134, [3-(1,5-Dimethyl-1H-pyrazol-3-ylmethoxy)-2-ethoxy-phenyl]-(1H-pyrrolo[2,3-b]pyridin-3-yl)-methanone] | –
≤ 10 µM | CCOc1c(OC(C)c2ccncc2)cccc1C(=O)c1c[nH]c2ncccc12 (stereo not shown) [P-2135, [2-Ethoxy-3-(1-pyridin-4-yl-ethoxy)-phenyl]-(1H-pyrrolo[2,3-b]pyridin-3-yl)-methanone] | –
≤ 10 µM | CCOc1c(OCc2c(F)cc(F)cc2F)cccc1C(=O)c1c[nH]c2ncccc12 [P-2137, [2-Ethoxy-3-(2,4,6-trifluoro-benzyloxy)-phenyl]-(1H-pyrrolo[2,3-b]pyridin-3-yl)-methanone] | IC50 [4]: ≤ 10 µM
≤ 10 µM | CCOc1c(OC(C)c2ccc(Cl)cc2Cl)cccc1C(=O)c1c[nH]c2ncccc12 (stereo not shown) [P-2138, {3-[1-(2,4-Dichloro-phenyl)-ethoxy]-2-ethoxy-phenyl}-(1H-pyrrolo[2,3-b]pyridin-3-yl)-methanone] | –
≤ 10 µM | O=C(c1cccc(OCc2ccc(Cl)cc2F)c1OCC(F)(F)F)c1c[nH]c2ncccc12 [P-2139, [3-(4-Chloro-2-fluoro-benzyloxy)-2-(2,2,2-trifluoro-ethoxy)-phenyl]-(1H-pyrrolo[2,3-b]pyridin-3-yl)-methanone] | IC50 [4]: ≤ 10 µM
≤ 10 µM | O=C(c1cccc(OCc2c(F)cc(F)cc2F)c1OCC1CC1)c1c[nH]c2ncc(Cl)cc12 [P-2141, (5-Chloro-1H-pyrrolo[2,3-b]pyridin-3-yl)-[2-cyclopropylmethoxy-3-(2,4,6-trifluoro-benzyloxy)-phenyl]-methanone] | –
≤ 10 µM | Fc1ccc(OCC(F)(F)F)c(Cl)c1Cc1c[nH]c2ncccc12 [P-2148, 3-[2-Chloro-6-fluoro-3-(2,2,2-trifluoro-ethoxy)-benzyl]-1H-pyrrolo[2,3-b]pyridine] | IC50 [4]: ≤ 10 µM
≤ 10 µM | COc1cc(Cc2c[nH]c3ncc(Cl)cc23)c(F)cc1OCc1nc2cc(F)ccc2[nH]1 [P-2179, 2-[4-(5-Chloro-1H-pyrrolo[2,3-b]pyridin-3-ylmethyl)-5-fluoro-2-methoxy-phenoxymethyl]-5-fluoro-1H-benzoimidazole] | IC50 [2]: ≤ 10 µM
≤ 10 µM | COc1cc(Cc2c[nH]c3ncc(C)cc23)c(F)cc1OCc1nc2cc(Cl)ccc2[nH]1 [P-2184, 5-Chloro-2-[5-fluoro-2-methoxy-4-(5-methyl-1H-pyrrolo[2,3-b]pyridin-3-ylmethyl)-phenoxymethyl]-1H-benzoimidazole] | IC50 [3]: ≤ 10 µM; IC50 [4]: ≤ 10 µM

— patent US7872018B2, “Compounds and methods for kinase modulation, and indications therefor” (Plexxikon, Inc., priority 2006, dated 2011)
